# Test results published in patent publication US20150216880A1, “INDUCING LACTATION IN NURSING FEMALES” (priority 2014, published 2015).
# Tested on: lactation in nursing females
# Assay: Topical cream applied to the nipple of a nursing mother; reported milk production
# Assay type: in vivo, human
# Conditions: nursing parent with child, 2 ml of Lubriderm Ultra cream with two percent, by volume, stanozolol, left on about two minutes, then washed off
# Method: In use, the cream is applied to a nipple prior to breast feeding. Generally, the cream is left on the nipple for about five to about twenty minutes and, usually, for about five to about fifteen minutes.
# It is then removed by washing. Then the mother is then ready to being nursing.
# A nursing parent having a child with the ability to achieve adequate lactation has applied a 2 ml quantity of a Lubriderm Ultra cream having two percent, by volume, stanozolol added thereto. The so-applied cream is left on for about two minutes. It is then washed off.
smiles,measurement,value
C[C@]12Cc3c[nH]nc3C[C@@H]1CC[C@@H]1[C@@H]2CC[C@@]2(C)[C@H]1CC[C@]2(C)O [stanozolol],milk production (reported by the mother),increase in milk production
